Patent US6906205B2, “Spiro and dispiro 1,2,4-trioxolane antimalarials” (Medicines for Malaria Venture MMV, priority 2002, dated 2005)
Converted amounts (≈) assume the structure as drawn.

What was measured:
P. berghei ANKA strain = assay: treatment: 3x3 mg/kg and 3x1 mg/kg po divided doses in infected mice; format: in vivo, Plasmodium berghei; details: for Activity (%) p.o. SSV: percent reduction of parasitemia day 4
Experimental: Moro NMRI male mice (Fü Albino specific pathogen free) weighing 18±2 g were infected intravenously (i.v.) with 2×10^7 P. berghei ANKA strain-infected erythrocytes from donor mice on day 0 of the experiment. From donor mice with circa 30% parasitemia, heparinized blood was taken and diluted in physiological saline to 10^8 parasitized erythrocytes per ml. An aliquot (0.2 ml) of this suspension was injected i.v. into experimental and control groups of mice. In untreated control mice, parasitemia rose regularly to 40 to 50% by day 3 post-infection and 70 to 80% by day 4 post-infection. The mice died between days 5 and 7 post-infection. Throughout the experiments, mice were kept in groups of three or five animals in Makrolon type II cages in an air-conditioned animal room at 22 to 23° C. A diet with p-aminobenzoic acid (PABA) of 45 mg (NAFAG FUTTER© food N^o 9009 PAB-45) per kg of body weight, and tap water is available ad libitum.
OZ compounds were prepared at an appropriate concentration, either as a solution or a suspension containing SSV (0.5% w/v CMC, 0.5% v/v benzyl alcohol, 0.4% v/v Tween 80, and 0.9% w/v sodium chloride in water). They were administered per os (p.o.) in a total volume of 0.01 ml per gram of mouse. The activity of the compound was determined by a variety of methods outlined in subsequent sections. Survival time was also recorded, and survival to day 30 post-infection was considered to be a cure.
The second experiment consists of administration of divided 3×3 mg/kg and 3×1 mg/kg po doses administered on days 1, 2, and 3 post-infection. On day 4 post-infection, blood smears of all animals were prepared and stained with Giemsa. Parasitemia was determined microscopically, and the difference between the mean value of the control group (taken as 100%) and those of the experimental groups was calculated and expressed as percent reduction. Compounds were administered orally in the SSV vehicle.

[1] = system: P. falciparum K1 strain (Thailand resistant to chloroquine); assay: semiautomated microdilution assay, [3H]-hypoxanthine incorporation, K1 strain; format: cell-based, Plasmodium falciparum; details: K1 strain, 72 h incubation
Outline: (§1)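 Compounds were tested against intraerythrocytic parasites taken from asynchronous stock cultures, using semiautomated microdilution. IC50 values were estimated by logit regression analysis.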

[2] = system: P. falciparum NF54 strain (sensitive to standard antimalarials); assay: semiautomated microdilution assay, [3H]-hypoxanthine incorporation, NF54 strain; format: cell-based, Plasmodium falciparum; details: NF54 strain, 72 h incubation
Outline: as §1

[3] = system: ANKA strain of P. berghei; assay: single dose STI in vivo screen in infected mice; set-up: species or system Plasmodium berghei; details: for Activity (%) po / Survival (days) po: single 10 mg/kg po in 3% ethanol and 7% Tween 80; for Activity (%) po / Activity (%) sc / Activity (%) SSVpo: mice; for Activity (%) sc / Survival (days) sc: single 10 mg/kg sc in 3% ethanol and 7% Tween 80; for Activity (%) SSVpo: single po dose in standard suspending vehicle (SSV); for Survival (days) po / Survival (days) sc / Survival (days) SSVpo: untreated control 5.6 ± 0.3; for Survival (days) SSVpo: single po dose in SSV; for Activity (%) 3 mg/kg SSV po / Survival (days) 3 mg/kg SSV po: single 3 mg/kg po in SSV
Outline: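 Groups of 3-5 Moro SPF or NMRI mice infected with the ANKA strain of P. berghei received a single dose of trioxolane on day one post-infection. The compound was given in 3% ethanol and 7% Tween 80 or in SSV (0.5% w/v CMC, 0.5% v/v benzyl alcohol, 0.4% v/v Tween 80, 0.9% w/v sodium chloride in water). Antimalarial activity was scored as percent reduction in parasitemia on day three and as survival time versus untreated controls. Survival to day 30 counted as cure.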

[4] = system: Schistosoma mansoni 21-day-old schistosomules; assay: effect on 21-day-old schistosomules in mice; format: in vivo; details: single 200 mg/kg per os, female mice
Experimental: All groups were killed 4 weeks after treatment and the liver and intestine were removed and separated. The liver and intestine were compressed and alive male and female worms could be seen and counted. The effect of the compounds was evaluated by mean total and female worm burden.

[5] = system: Schistosoma mansoni adult schistosomes (49-day-old); assay: effect on adult schistosomes (49-day-old) in mice; format: in vivo; details: for % reduction of adult worms growth at day 49 after per os application of 400 mg/kg, TWR (%) / adult worms at day 49, per os 400 mg/kg, DEAD WORM (%): single 400 mg/kg per os
Experimental: Mice were infected with 100 Schistosoma mansoni cercariae […]. Each group was treated per os with OZ compounds at single doses of 200, 400, and 600 mg/kg. […] All groups were killed 4 weeks after treatment and the liver and intestine were removed and separated. The liver and intestine were compressed and alive male and female worms could be seen and counted.

[6] = 3 × 1 mg/kg days 1, 2, 3 post-infection
[7] = 3 × 3 mg/kg days 1, 2, 3 post-infection
[8] = percent reduction in parasitemia day 3 post-infection

| Structure (SMILES) | IC50 (ng/ml) K1 [1] | IC50 (ng/ml) NF54 [2] | Activity (%) po [3, 8] | Activity (%) sc [3, 8] | Survival (days) po [3] | Survival (days) sc [3] | % reduction of schistosomule growth at day 21 after per os application of 200 mg/kg, FWR (%) [4] [%] | % reduction of schistosomule growth at day 21 after per os application of 200 mg/kg, TWR (%) [4] [%] | % reduction of adult worms growth at day 49 after per os application of 400 mg/kg, TWR (%) [5] | adult worms at day 49, per os 400 mg/kg, DEAD WORM (%) [5] | also measured |
| --- | --- | --- | --- | --- | --- | --- | --- | --- | --- | --- | --- |
| NC(=O)c1cn(CC2CCC3(CC2)OOC2(O3)C3CC4CC(C3)CC2C4)cn1 (centres unmarked) [compound 320] |  |  |  |  |  |  |  |  |  |  | Survival (days) p.o. SSV (P. berghei ANKA strain; [6]): 8.6 days; Activity (%) p.o. SSV (P. berghei ANKA strain; [6]): 50%; Survival (days) p.o. SSV (P. berghei ANKA strain; [7]): 9.6 days; Activity (%) p.o. SSV (P. berghei ANKA strain; [7]): 96% |
| O=C1CN(C(=O)CC2CCC3(CC2)OOC2(O3)C3CC4CC(C3)CC2C4)CCN1 (centres unmarked) [compound 296] |  |  |  |  |  |  |  |  |  |  | Survival (days) p.o. SSV (P. berghei ANKA strain; [6]): 7.8 days; Activity (%) p.o. SSV (P. berghei ANKA strain; [6]): 49%; Survival (days) p.o. SSV (P. berghei ANKA strain; [7]): 9.4 days; Activity (%) p.o. SSV (P. berghei ANKA strain; [7]): 94% |
| CS(=O)(=O)O.O=C(O)CNCC1CCC2(CC1)OOC1(O2)C2CC3CC(C2)CC1C3 (centres unmarked) [compound 309] |  |  |  |  |  |  |  |  |  |  | Survival (days) p.o. SSV (P. berghei ANKA strain; [6]): 9.4 days; Activity (%) p.o. SSV (P. berghei ANKA strain; [6]): 66%; Survival (days) p.o. SSV (P. berghei ANKA strain; [7]): 9.2 days; Activity (%) p.o. SSV (P. berghei ANKA strain; [7]): 99% |
| CON=C1CCC2(CC1)OOC1(O2)C2CC3CC(C2)CC1C3 (centres unmarked) [OZ15] | 0.60 ng/mL (≈ 1.95 nM) | 1.0 ng/mL (≈ 3.25 nM) | 99.8% | 99.9% | 7.4 days | 8.2 days | 70 | 63 | 0% | 10% | Activity (%) SSVpo [3, 8]: 88%; Survival (days) SSVpo [3]: 6.8 days |
| CCOC(=O)N1CCC2(CC1)OOC1(O2)C2CC3CC(C2)CC1C3 (centres unmarked) [OZ23] | 0.29 ng/mL (≈ 0.859 nM) | 0.57 ng/mL (≈ 1.69 nM) | 99.5% | 99.9% | 7.7 days | 8.9 days | 84 | 90 | 0% | 4% | Activity (%) SSVpo [3, 8]: 99.34%; Survival (days) SSVpo [3]: 7.0 days |
| CC(C)(N)C(=O)NC[C@H]1CC[C@]2(CC1)OOC1(O2)C2CC3CC(C2)CC1C3 (some centres unmarked) [OZ281] | 0.50 ng/mL (≈ 1.32 nM) | 0.30 ng/mL (≈ 0.793 nM) |  |  |  |  | 90 | 91 | 12% | 15% | Activity (%) 3 mg/kg SSV po [3, 8]: 96%; Survival (days) 3 mg/kg SSV po [3]: 10.2 days; Survival (days) 10 mg/kg SSV po ([3]; single 10 mg/kg po in SSV): 8.7 days |
| O=C(O)CNC[C@H]1CC[C@]2(CC1)OO[C@]1(O2)C2CC3CC(C2)CC1C3 [OZ309] | 11 ng/mL (≈ 31.3 nM) | 17 ng/mL (≈ 48.4 nM) |  |  |  |  | 100 | 97 | 19% | 17% | Activity (%) 3 mg/kg SSV po [3, 8]: 86%; Survival (days) 10 mg/kg SSV po ([3]; single 10 mg/kg po in SSV): 8.8 days |
| C1COC2(CCC3(CC2)OOC2(O3)C3CC4CC(C3)CC2C4)O1 (centres unmarked) [OZ10] | 0.40 ng/mL (≈ 1.24 nM) | 0.67 ng/mL (≈ 2.08 nM) | 99.6% | 99.98% | 8.9 days | 10.5 days | 73 | 66 | 28% | 13% | % reduction of adult worms growth at day 49 after per os application of 600 mg/kg, TWR (%) ([5]; single 600 mg/kg per os): 21%; adult worms at day 49, per os 600 mg/kg, DEAD WORM (%) ([5]; single 600 mg/kg per os): 23% |
| O=C(c1ccccc1)N1CCC2(CC1)OOC1(O2)C2CC3CC(C2)CC1C3 (centres unmarked) [OZ24] | 0.35 ng/mL (≈ 0.947 nM) | 0.58 ng/mL (≈ 1.57 nM) | 93% | 99.9% | 7.0 days | 8.7 days | 61 | 65 | 21% | 0% | Activity (%) SSVpo [3, 8]: 66%; Survival (days) SSVpo [3]: 6.8 days |
| Oc1ccc([C@H]2CC[C@]3(CC2)OOC2(O3)C3CC4CC(C3)CC2C4)cc1 (some centres unmarked) [OZ288] | 1.7 ng/mL (≈ 4.77 nM) | 2.7 ng/mL (≈ 7.57 nM) |  |  |  |  | 96 | 95 | 52% | 45% | Activity (%) 3 mg/kg SSV po [3, 8]: 82%; Survival (days) 10 mg/kg SSV po ([3]; single 10 mg/kg po in SSV): 11.0 days |
| C1C2CC3CC1CC(C2)C31OOC2(O1)C1CC3CC(C1)CC2C3 (centres unmarked) [OZ04] | >100/>100 ng/ml | >100/>100 ng/ml | 0/NA/0^1% | 0/NA/0^1% | 5.3/NA/5.3^1 days | 5.3/NA/5.3^1 days | 7 | 7 | 0/0% | 0/0% |  |
| O=[N+]([O-])c1ccc(NN=C2CCC3(CC2)OOC2(O3)C3CC4CC(C3)CC2C4)c([N+](=O)[O-])c1 (centres unmarked) [OZ29] | 9.7 ng/mL (≈ 21.2 nM) | 13 ng/mL (≈ 28.4 nM) | 0/NA/0% | 0/NA/0% | 5.0/NA/5.0 days | 5.0/NA/5.0 days | 20 | 28 | 0/0% | 0/0% |  |
| O=C(O)CC[C@H]1CC[C@]2(CC1)OO[C@]1(O2)C2CC3CC(C2)CC1C3 [OZ352] | 19 ng/mL (≈ 56.5 nM) | 20 ng/mL (≈ 59.4 nM) |  |  |  |  | 91 | 89 | 16% | 26% | Activity (%) 3 mg/kg SSV po [3, 8]: 77%; Activity (%) 10 mg/kg SSV po ([3]; percent reduction in parasitemia day 3 post-infection, single 10 mg/kg po in SSV): 99.66%; Survival (days) 3 mg/kg SSV po [3]: 7.2 days; Survival (days) 10 mg/kg SSV po ([3]; single 10 mg/kg po in SSV): 8.2 days |
| CC(C)(C)C1CCC2(CC1)OOC1(O2)C2CC3CC(C2)CC1C3 (centres unmarked) [OZ18] | 63 ng/mL (≈ 197 nM) | 84 ng/mL (≈ 262 nM) | 0/NA/0% | 0/NA/0% | 5.0 days | 5.3 days | 9 | 12 | 0/0% | 0/0% |  |
